ChEMBL document CHEMBL1275469, “VIM-15 and VIM-16, two new VIM-2-like metallo-beta-lactamases in Pseudomonas aeruginosa isolates from Bulgaria and Germany” (2008)
Converted amounts (≈) assume the structure as drawn.

Assays:
Escherichia coli [1] = test: Antimicrobial activity against Escherichia coli DH5alpha by agar dilution method; type: functional; details: DH5[alpha]
Pseudomonas aeruginosa [2] = test: Activity of Pseudomonas aeruginosa 166301 beta-lactamase VIM-16 relative to cephaloridine
Escherichia coli [3] = test: Antimicrobial activity against Escherichia coli DH5alpha harboring beta-lactamase VIM-15 by agar dilution method; type: functional; details: DH5[alpha]
Pseudomonas aeruginosa [4] = test: Activity of Pseudomonas aeruginosa 9551 beta-lactamase VIM-15
Pseudomonas aeruginosa [5] = test: Activity of Pseudomonas aeruginosa 166301 beta-lactamase VIM-16
Escherichia coli [6] = test: Antimicrobial activity against Escherichia coli DH5alpha harboring beta-lactamase VIM-2 by agar dilution method; type: functional; details: DH5[alpha]
Pseudomonas aeruginosa [7] = test: microbe, parasite or virus in culture; details: Pseudomonas aeruginosa, 9551, Urine
Pseudomonas aeruginosa [8] = test: Activity of Pseudomonas aeruginosa 9551 beta-lactamase VIM-15 relative to cephaloridine
Escherichia coli [9] = test: Antimicrobial activity against Escherichia coli DH5alpha harboring beta-lactamase VIM-16 by agar dilution method; type: functional; details: DH5[alpha]
Pseudomonas aeruginosa [10] = test: Antimicrobial activity against Pseudomonas aeruginosa 166301 expressing beta-lactamase VIM-16 obtained from urine of patient by agar dilution method; type: functional
[11] = target: Beta-lactamase VIM-2 (Pseudomonas aeruginosa) (UniProt Q9K2N0); test: Ratio of Kcat to Km for Pseudomonas aeruginosa COL-1 beta-lactamase VIM-2 relative to cephaloridine
Pseudomonas aeruginosa [12] = test: Ratio of Kcat to Km for Pseudomonas aeruginosa 166301 beta-lactamase VIM-16
[13] = target: Beta-lactamase VIM-2 (Pseudomonas aeruginosa) (UniProt Q9K2N0); test: Activity of Pseudomonas aeruginosa COL-1 beta-lactamase VIM-2 relative to cephaloridine
Pseudomonas aeruginosa [14] = test: Ratio of Kcat to Km for Pseudomonas aeruginosa 9551 beta-lactamase VIM-15 relative to cephaloridine
Pseudomonas aeruginosa [15] = test: Ratio of Kcat to Km for Pseudomonas aeruginosa 9551 beta-lactamase VIM-15
Pseudomonas aeruginosa [16] = test: Ratio of Kcat to Km for Pseudomonas aeruginosa 166301 beta-lactamase VIM-16 relative to cephaloridine
Pseudomonas aeruginosa [17] = test: Antimicrobial activity against Pseudomonas aeruginosa 166301 expressing beta-lactamase VIM-16 obtained from urine of patient by agar dilution method in presence of beta-lactamase inhibitor Tazobactam; type: functional; details: Pseudomonas aeruginosa, 166301, Urine
Escherichia coli [18] = test: Antimicrobial activity against Escherichia coli DH5alpha harboring beta-lactamase VIM-15 by agar dilution method in presence of beta-lactamase inhibitor Tazobactam; type: functional; details: DH5[alpha]
Escherichia coli [19] = test: Antimicrobial activity against Escherichia coli DH5alpha by agar dilution method in presence of beta-lactamase inhibitor Tazobactam; type: functional; details: DH5[alpha]
Escherichia coli [20] = test: Antimicrobial activity against Escherichia coli DH5alpha harboring beta-lactamase VIM-2 by agar dilution method in presence of beta-lactamase inhibitor Tazobactam; type: functional; details: DH5[alpha]
Pseudomonas aeruginosa [21] = test: Antimicrobial activity against Pseudomonas aeruginosa 9551 expressing beta-lactamase VIM-15 obtained from urine of patient by agar dilution method in presence of beta-lactamase inhibitor Tazobactam; type: functional; details: Pseudomonas aeruginosa, 9551, Urine
Escherichia coli [22] = test: Antimicrobial activity against Escherichia coli DH5alpha harboring beta-lactamase VIM-16 by agar dilution method in presence of beta-lactamase inhibitor Tazobactam; type: functional; details: DH5[alpha]
[23] = Pseudomonas aeruginosa, 166301, Urine

Row | Compound | MIC (Escherichia coli [1]) [µg/mL] | Activity (Pseudomonas aeruginosa [2]) [%] | MIC (Escherichia coli [3]) [µg/mL] | kcat (Pseudomonas aeruginosa [4]) [s⁻¹] | kcat (Pseudomonas aeruginosa [5]) [s⁻¹] | MIC (Escherichia coli [6]) [µg/mL] | MIC (Pseudomonas aeruginosa [7]) [µg/mL] | Activity (Pseudomonas aeruginosa [8]) [%] | MIC (Escherichia coli [9]) [µg/mL] | MIC (Pseudomonas aeruginosa [10]; [23]) [µg/mL] | kcat/Km (Pseudomonas aeruginosa [12]) [M⁻¹ s⁻¹] | Km (Pseudomonas aeruginosa [4]) [µM] | Km (Pseudomonas aeruginosa [5]) [µM] | Activity (Pseudomonas aeruginosa [14]) [%] | kcat/Km (Pseudomonas aeruginosa [15]) [M⁻¹ s⁻¹] | Activity (Pseudomonas aeruginosa [16]) [%] | also measured
1 | C[C@H]1[C@H](NC(=O)/C(=N\OC(C)(C)C(=O)O)c2csc(N)n2)C(=O)N1S(=O)(=O)O [AZTREONAM] | 0.016 (≈ 0.0367 µM) | < 0.12 | 0.016 (≈ 0.0367 µM) | < 0.031 | < 0.11 | 0.016 (≈ 0.0367 µM) | 16 (≈ 36.7 µM) | < 0.016 | 0.016 (≈ 0.0367 µM) | 32 (≈ 73.5 µM) |  |  |  |  |  |  | 
2 | O=C(Cc1cccs1)N[C@@H]1C(=O)N2C(C(=O)[O-])=C(C[n+]3ccccc3)CS[C@H]12 |  | 100 |  | 190 | 89 |  |  | 100 |  |  | 64000 | 83 | 1400 | 100 | 2.3e+06 | 100 | Activity [11]: 100%; Activity [13]: 100%
3 | CC1(C)S[C@@H]2[C@H](NC(=O)[C@H](N)c3ccc(O)cc3)C(=O)N2[C@H]1C(=O)O [AMOXICILLIN] | 4 (≈ 10.9 µM) |  | 256 (≈ 701 µM) |  |  | 256 (≈ 701 µM) | 512 (≈ 1400 µM) |  | 256 (≈ 701 µM) | > 512 |  |  |  |  |  |  | 
4 | CO/N=C(\C(=O)N[C@@H]1C(=O)N2C(C(=O)[O-])=C(C[N+]3(C)CCCC3)CS[C@H]12)c1csc(N)n1 | 0.016 (≈ 0.0333 µM) | 0.35 | 0.03 (≈ 0.0624 µM) | 9.5 | 0.31 | 0.03 (≈ 0.0624 µM) | 32 (≈ 66.6 µM) | 5 | 0.03 (≈ 0.0624 µM) | 32 (≈ 66.6 µM) | 1500 | 130 | 210 |  | 76000 | 2.3 | 
5 | NC[C@H]1O[C@H](O[C@H]2[C@H](O)[C@@H](O[C@H]3O[C@H](CO)[C@@H](O)[C@H](N)[C@H]3O)[C@H](N)C[C@@H]2N)[C@H](N)C[C@@H]1O [TOBRAMYCIN] | 0.25 (≈ 0.535 µM) |  | 0.25 (≈ 0.535 µM) |  |  | 0.25 (≈ 0.535 µM) | 8 (≈ 17.1 µM) |  | 0.25 (≈ 0.535 µM) | > 128 |  |  |  |  |  |  | 
6 | CO/N=C(\C(=O)N[C@@H]1C(=O)N2C(C(=O)O)=C(COC(C)=O)CS[C@H]12)c1csc(N)n1 [CEFOTAXIME] | 0.03 (≈ 0.0659 µM) | 91 | 4 (≈ 8.78 µM) | 90 | 81 | 1 (≈ 2.2 µM) | > 256 | 47 | 2 (≈ 4.39 µM) | > 256 | 340000 | 13 | 240 | 300 | 6.9e+06 | 530 | 
7 | GENTAMICIN | 0.13 |  | 0.13 |  |  | 0.13 |  |  | 0.13 |  |  |  |  |  |  |  | MIC (Pseudomonas aeruginosa [10]): > 128 µg/mL
8 | CC1(C)S[C@@H]2[C@H](NC(=O)Cc3ccccc3)C(=O)N2[C@H]1C(=O)O |  |  |  |  |  |  |  |  |  |  |  |  |  |  |  | 800 | 
9 | CCN1CCN(C(=O)N[C@@H](C(=O)N[C@@H]2C(=O)N3[C@@H]2SC(C)(C)[C@@H]3C(=O)O)c2ccccc2)C(=O)C1=O [PIPERACILLIN] |  |  |  |  |  |  |  |  |  |  |  |  |  |  |  |  | MIC (Pseudomonas aeruginosa [17]): 128 µg/mL; MIC (Escherichia coli [18]): 8 µg/mL; MIC (Escherichia coli [19]): 1 µg/mL; MIC (Escherichia coli [20]): 4 µg/mL; MIC (Pseudomonas aeruginosa [21]): 128 µg/mL; MIC (Escherichia coli [22]): 8 µg/mL
10 | CC(C)(O/N=C(\C(=O)N[C@@H]1C(=O)N2C(C(=O)[O-])=C(C[n+]3ccccc3)CS[C@H]12)c1csc(N)n1)C(=O)O [CEFTAZIDIME] | 0.13 (≈ 0.238 µM) | 0.25 | 0.5 (≈ 0.915 µM) | 1 | 0.22 | 1 (≈ 1.83 µM) | 64 (≈ 117 µM) | 0.53 | 0.5 (≈ 0.915 µM) | 64 (≈ 117 µM) | 1400 | 37 | 150 | 1.2 | 27000 | 2.2 | 
11 | C[C@@H](O)[C@H]1C(=O)N2C(C(=O)O)=C(SCCNC=N)C[C@H]12 [IMIPENEM ANHYDROUS] |  | 51 | 0.5 (≈ 1.67 µM) | 61 | 45 |  | > 128 | 32 |  | > 128 | 510000 | 7.3 | 89 | 370 | 8.4e+06 | 800 | Activity [11]: 380%; Activity [13]: 17%
12 | C[C@@H](O)[C@H]1C(=O)N2C(C(=O)O)=C(S[C@@H]3CN[C@H](C(=O)N(C)C)C3)[C@H](C)[C@H]12 [MEROPENEM] | 0.016 (≈ 0.0417 µM) |  | 0.03 (≈ 0.0782 µM) |  |  | 0.03 (≈ 0.0782 µM) | 128 (≈ 334 µM) |  | 0.03 (≈ 0.0782 µM) | > 128 |  |  |  |  |  | 110 | Activity [11]: 62%; Activity [13]: 1.8%
